The values below come from patent publication US9140692B1, “Methods of identifying glycopeptides recognized by disease-associated auto-antibodies” (Glycozym, Inc., priority 2010, dated 2015).

Entries after “also recorded” stand apart in the source; their conditions may differ.

One experiment concerns human IgG antibodies from cancer patients. In words: Microarray screening of the larger GalNAc O-glycopeptide library (Table III) with human cancer and control sera. Format: binding. Particulars: FIG. 6; sera at 1:20 dilution, anti-human-IgG Cy3. The source says:
FIG. 6A: glycopeptides 889 (SEQ ID NO: 134), 275a (SEQ ID NO: 86), and 585 (SEQ ID NO: 109). FIG. 6B: glycopeptides 893 (SEQ ID NO: 135), 931-C3 (SEQ ID NO: 146), and 852-C3 (SEQ ID NO: 145). FIG. 6C: gycopeptides 873 (SEQ ID NO: 132) and 690 (SEQ ID NO: 116). The following human sera were used for FIGS. 6A and 6B: 32 ovarian cancer (O), 38 breast cancer (B), 54 colon cancer (C), 17 lung cancer (L), as well as 145 normal sera (N) (Asterand Corp). The following sera were used for FIG. 6C: 32 ovarian cancer (O), 38 breast cancer […], 54 colon cancer (C), 42 lung cancer (L), 52 pancreactic cancer (Pn), 35 prostatic cancer (Pr), 8 inflammatory disease (In), 8 benign controls (Bn), and 145 healthy controls (N). Sera were screened at 1:20 dilution. Anti-human-IgG conjugated to Cy3 was used as the secondary detection unit and slides were scanned with a GenePix 4200AL Microarray Scanner.
A larger library of GalNAc O-glycopeptides designed with GalNAc linked to serine or threonine at position 12 in 20-mer peptides was produced as described in Example 1. Peptides were selected among cell membrane and secreted human proteins that contain serine and threonine residues that are predicted to be O-glycosylated by the NetOGlyc algorithm (Julenius et al. 2005). A total of 960 GalNAc glycopeptides were synthesized at 0.5 mg scale (Sigma) and printed on microarray hydrogel slides (Schott Nexterion) as described in Example 1. Slides were reacted with human cancer sera (ovarian, breast, colon, lung, pancreas, prostate, 235 total sera) and control sera (145 healthy, 20 inflammatory, 20 benign tumor). Glycopeptides preferentially reactive with human IgG antibodies from cancer patients compared to controls were selected for resynthesis at 5 mg scale with amidated C-terminus (New England Peptide (Gardner, Mass.) (Table III). Resynthesized glycopeptides were reprinted on microarray slides at 50 μM and reacted with human cancer sera (Total 286 sera: 32 ovarian cancer (O), 38 breast cancer (B), 54 colon cancer (C), 17 lung cancer (L), and 145 age and sex matched control normal sera as described in Example 1. Table III lists glycopeptides exclusively or preferentially reactive with human IgG from cancer patients compared to controls and examples of reactivities are shown in FIG. 6.
Since IgG antibodies reactive with glycopeptides epitopes recognize both the peptide sequence in close proximity to the O-glycan (i.e., one to five or even eighth residues N- and C-terminal of the O-glycan) as well as the O-glycan structure, it is clear that different glycoforms of one glycopeptide may be recognized by different IgG antibodies and these antibodies may be found in different cancer patients. In this Example, GalNAc-glycopeptides from MUC1 and MUC4 were also produced as the core 3 GlcNAcβ1-3GalNAcα1-O-Ser/Thr glycoform with a recombinant core 3 synthase as described in Example 1.
“H2N-ASRYNLTISDVSVSDVPFPF-amide (H-ASRYNLTISDVSVSDVPFPF-NH2; also: O-GalNAc glycopeptide, sites not given here) [Peptide 893]”: the “reactivity with IgG from newly diagnosed cancer patients compared to normal control sera” value (from here on “reactivity … compared to normal control sera”) is on record as “reactive with IgG from newly diagnosed cancer patients”.

With “H2N-HDVETQFNQYKTEAASRYNL-amide (H-HDVETQFNQYKTEAASRYNL-NH2; also: O-GalNAc glycopeptide, sites not given here) [Peptide 889]”, the “reactivity … compared to normal control sera” value is listed as “reactive with IgG from newly diagnosed cancer patients”.

“H2N-LAKMYYSAVEPTKDIFTGLI-amide (H-LAKMYYSAVEPTKDIFTGLI-NH2; also: O-GalNAc glycopeptide, sites not given here) [Peptide 275a]”: the “reactivity … compared to normal control sera” value is given as “reactive with IgG from newly diagnosed cancer patients”.

Take “H2N-PGTSTTPSQPNSAGVQDTEM-amide (H-PGTSTTPSQPNSAGVQDTEM-NH2; also: O-GalNAc glycopeptide, sites not given here) [Peptide 690]”: the “reactivity … compared to normal control sera” value is listed as “reactive with IgG from newly diagnosed cancer patients”.

As to “H2N-SLASQATDIFST[GlcNAc] VPPTPPSI-amide [Peptide 931-C3]”, the “reactivity … compared to normal control sera” value is recorded as “reactive with IgG from newly diagnosed cancer patients”.

“H2N-TDCGGPKDHPLTCDDPRFQA-amide (H-TDCGGPKDHPLTCDDPRFQA-NH2; cysteine pairing not given here; also: O-GalNAc glycopeptide, site not shown) [Peptide 585]”: the “reactivity … compared to normal control sera” value is reported as “reactive with IgG from newly diagnosed cancer patients”.

Regarding “H2N-TKTDASSTHHSTVPPLTSSN-amide (H-TKTDASSTHHSTVPPLTSSN-NH2; also: O-GalNAc glycopeptide, sites not given here) [Peptide 873]”, the “reactivity … compared to normal control sera” value is given as “reactive with IgG from newly diagnosed cancer patients”.

On to “H2N-VPVTRPALGSTT[GlcNAc] PPAHDVTS-amide (H-VPVTRPALGSTTPPAHDVTS-NH2; not fully specified (residue 12)) [Peptide 852-C3]”, for which the “reactivity … compared to normal control sera” value is reported as “reactive with IgG from newly diagnosed cancer patients”.

Still in this experiment, the particulars now being: resynthesized glycopeptides printed at 50 μM; cancer sera and 145 control normal sera.
Turning to “H2N-SLASQATDIFST[GlcNAc] VPPTPPSI-amide [Peptide 931-C3]”, the “reactivity with human IgG from cancer patients compared to controls” value is recorded as “exclusively recognized by IgG antibodies in sera from cancer patients”.

Regarding “H2N-VPVTRPALGSTT[GlcNAc] PPAHDVTS-amide (H-VPVTRPALGSTTPPAHDVTS-NH2; not fully specified (residue 12)) [Peptide 852-C3]”, the “reactivity with human IgG from cancer patients compared to controls” value is “exclusively recognized by IgG antibodies in sera from cancer patients”.

The subject of another experiment is human IgG antibodies (cancer-associated auto-antibodies in serum). In words: Glycopeptide microarray screening of the 96 paired peptide/GalNAc-glycopeptide library with human sera. Format: binding. Particulars: serum of newly diagnosed prostate cancer patient #762, 1:25 dilution, labeled anti-human IgG; FIG. 2. The source says:
A panel of human sera was obtained from CHTN (Cooperative Human Tissue Network) and Asterand Inc., under the guidelines of approved agreements by the providers. Sera obtained were from control individuals (“normal”) (n=31) and from newly diagnosed cancer patients (n=147) with pancreatic, breast, colon, lung, prostate or ovary primary cancers. Briefly, for cancer sera, all blood samples were obtained on or near date of diagnosis, and serum was processed immediately, flash frozen and stored at −70° C. until shipment. Serum samples received from the providers as frozen aliquots generally of 1-2 mL were brought to room temperature, vortexed and distributed into 20-100 μL aliquots in closeable Eppendorf tubes (vWR) (pre-labeled), and immediately frozen and stored at −70° C. until use.
Glycopeptides (20-mers with and without a single GalNAc residue at position 12) and control structures (corresponding unglycosylated peptides) were printed on Corning (Corning, N.Y.), Scienion (Germany) or Schott Nexterion® Slide H or Schott Nexterion® Slide H MPX 16 (Schott AG, Mainz, Germany) by JPT (Germany). Triplicates or quadruplicates of all compounds were printed at optimal concentrations (1-50 μM) or 50× excess relative to scale of synthesis for spot-synthesized glycopeptides printed without purification. After printing, slides were incubated for 1 hour (h) in a humidified hybridization chamber with 70-100% relative humidity and stored until use at 4° C. Unspotted slide areas were blocked for 1 h with 25 mM ethanolamine in 100 mM sodium borate pH 8.5. If an enzyme step was needed either to increase sites of GaLNac attachments in peptides or extend O-glycans to T, STn, core 3 or other structures, addition of the enzyme reaction mixture in 25-35 μL was made in appropriate wells and the slide incubated at 37° C. for 1 h, after which it was washed in PBS/0.05% Tween and then PBS, and then spun dry.
Human sera (usually diluted 1:25), monoclonal antibodies, lectins and the like were added in 25 μL and the slide left at room temperature for 2 h in a moist, humid chamber after which it was washed as above and spun dry (if no superstructure). Secondary antibodies were added at appropriate concentrations (for human sera, usually 1:1500 for anti-human IgG with a Cy3 chromophore). In some cases, for some controls, lectin-Cy3 was used directly as final step. The final step was washing as above, with a brief de-ionized water wash and the slide spun dry for scanning Analysis was made on a GenePix 4200AL Scanner at PMT 400 and power mode 10-50. Data were analyzed and plotted using Microsoft Excel.
Glycopeptides (20-mers with and without a single GalNAc residue at position 12) were printed in triplicates (horizontal) on Scineon 16-well slides by JPT (Germany) and bound human IgG antibodies detected by a labeled secondary anti-human IgG antibody. FIG. 2 illustrates examples of reactivities of serum (1:25 dilution) from a newly diagnosed prostate cancer patient (#762 in Panel A) and a normal control serum from a healthy individual (#174 in Panel B) on the library of 96 paired peptides/GalNAc-glycopeptides as designated in Table II. Candidate cancer-associated IgG antibodies identified in the cancer serum directed to GalNAc glycopeptide epitopes are indicated by open circles labeled 20/21, 62/63, and 86/87 for the paired peptide and GalNAc glycopeptides, respectively. […]
FIG. 4 illustrates results of screening 147 cancer sera and 31 normal sera on the glycopeptide pair #62/63. FIG. 5 illustrates results of screening 147 cancer sera and 31 normal sera on the glycopeptide pair #86/87.
For the substance “SESFPHPGFNMSLLENHTRQ [Peptide 86, derived from KLK1]”, the “reactivity of serum IgG antibodies with printed peptide/GalNAc-glycopeptide” value was “do not react; also recorded: not the corresponding peptide”.

Turning to “SESFPHPGFNMSLLENHTRQ [Peptide 87, derived from KLK1]”, the “reactivity of serum IgG antibodies with printed peptide/GalNAc-glycopeptide” value is “specifically reacting; also recorded: labels”.

As for “SHHSDESDELVTDFPTDLPA [Peptide 20, derived from SPP1]”, the “reactivity of serum IgG antibodies with printed peptide/GalNAc-glycopeptide” value is given as “do not react; also recorded: not the corresponding peptide”.

For “SHHSDESDELVTDFPTDLPA [Peptide 21, derived from SPP1]”, the “reactivity of serum IgG antibodies with printed peptide/GalNAc-glycopeptide” value was “specifically reacting; also recorded: labels”.

With “TPTPKEKPEAGTYSVNNGND [Peptide 62, derived from LAMP2]”, the “reactivity of serum IgG antibodies with printed peptide/GalNAc-glycopeptide” value was “do not react; also recorded: not the corresponding peptide”.

Regarding “TPTPKEKPEAGTYSVNNGND [Peptide 63, derived from LAMP2]”, the “reactivity of serum IgG antibodies with printed peptide/GalNAc-glycopeptide” value was “specifically reacting; also recorded: labels”.
